According to ChEMBL document CHEMBL1201862, “PubChem BioAssay data set” (2004):
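All cell lines were grown in 96-well plates and treated with compound for 48 hours. At the GI50, growth is halved.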 Activity calls are given as the source filed them. Rule as the data show it: active = GI50 up to about 1.1 µM and inactive = higher.

Key:
Assay in all cases: growth of human tumour cells (NCI), 48 h
[1] = tested on: SN12C
[2] = tested on: DU-145
[3] = tested on: OVCAR-3
[4] = tested on: Malme-3M
[5] = tested on: MDA-MB-435
[6] = tested on: PC-3
[7] = tested on: SF-268
[8] = tested on: UACC-62
[9] = tested on: EKVX
[10] = tested on: CAKI-1
[11] = tested on: SK-OV-3
[12] = tested on: NCI-H226
[13] = tested on: OVCAR-8
[14] = tested on: SF-295
[15] = tested on: MCF7
[16] = tested on: U-251
[17] = tested on: MOLT-4
[18] = tested on: HT-29
[19] = tested on: UO-31
[20] = tested on: SW-620
[21] = tested on: OVCAR-4
[22] = tested on: NCI-H522
[23] = tested on: SNB-19
[24] = tested on: SR
[25] = tested on: T47D
[26] = tested on: NCI/ADR-RES
[27] = tested on: ACHN
[28] = tested on: BT-549
[29] = tested on: M14
[30] = tested on: RPMI-8226
[31] = tested on: HOP-62
[32] = tested on: OVCAR-5
[33] = tested on: SK-MEL-5
[34] = tested on: HCC 2998
[35] = tested on: A498
[36] = tested on: SK-MEL-2
[37] = tested on: LOX IMVI
[38] = tested on: KM12
[39] = tested on: HCT-116
[40] = tested on: Hs-578T
[41] = tested on: MDA-MB-231
[42] = tested on: COLO 205
[43] = tested on: NCI-H460
[44] = tested on: RXF 393
[45] = tested on: SK-MEL-28
[46] = tested on: IGROV-1
[47] = tested on: A549
[48] = tested on: NCI-H23
[49] = tested on: HCT-15
[50] = tested on: K562
[51] = tested on: HL-60
[52] = tested on: 786-0
[53] = tested on: SNB-75
[54] = tested on: MDA-N
[55] = tested on: UACC-257
[56] = tested on: HOP-92
[57] = tested on: SF-539
[58] = tested on: CCRF-CEM
[59] = tested on: TK-10

CCOC(=O)c1ccc(C(=O)C(C(C)=O)C(=O)OC(C)(C)C)[nH]1 (configuration not stated)
GI50 [1]: > 100 µM (inactive)
GI50 [2]: > 100 µM (inactive)
GI50 [3]: > 100 µM (inactive)
GI50 [4]: > 100 µM (inactive)
GI50 [5]: > 100 µM (inactive)
GI50 [6]: > 100 µM (inactive)
GI50 [7]: > 100 µM (inactive)
GI50 [8]: > 100 µM (inactive)
GI50 [9]: > 100 µM (inactive)
GI50 [10]: > 100 µM (inactive)
GI50 [11]: > 100 µM (inactive)
GI50 [12]: > 100 µM (inactive)
GI50 [13]: > 100 µM (inactive)
GI50 [14]: > 100 µM (inactive)
GI50 [15]: > 100 µM (inactive)
GI50 [16]: > 100 µM (inactive)
GI50 [17]: > 100 µM (inactive)
GI50 [18]: > 100 µM (inactive)
GI50 [19]: > 100 µM (inactive)
GI50 [20]: > 100 µM (inactive)
GI50 [21]: > 100 µM (inactive)
GI50 [22]: > 100 µM (inactive)
GI50 [23]: > 100 µM (inactive)
GI50 [24]: > 100 µM (inactive)
GI50 [25]: > 100 µM (inactive)
GI50 [26]: > 100 µM (inactive)
GI50 [27]: > 100 µM (inactive)
GI50 [28]: > 100 µM (inactive)
GI50 [29]: > 100 µM (inactive)
GI50 [30]: > 100 µM (inactive)
GI50 [31]: > 100 µM (inactive)
GI50 [32]: > 100 µM (inactive)
GI50 [33]: > 100 µM (inactive)
GI50 [34]: > 100 µM (inactive)
GI50 [35]: > 100 µM (inactive)
GI50 [36]: > 100 µM (inactive)
GI50 [37]: > 100 µM (inactive)
GI50 [38]: > 100 µM (inactive)
GI50 [39]: > 100 µM (inactive)
GI50 [40]: > 100 µM (inactive)
GI50 [41]: > 100 µM (inactive)
GI50 [42]: > 100 µM (inactive)
GI50 [43]: > 100 µM (inactive)
GI50 [44]: > 100 µM (inactive)
GI50 [45]: > 100 µM (inactive)
GI50 [46]: > 100 µM (inactive)
GI50 [47]: > 100 µM (inactive)
GI50 [48]: > 100 µM (inactive)
GI50 [49]: > 100 µM
GI50 [50]: > 100 µM (inactive)
GI50 [51]: > 100 µM (inactive)
GI50 [52]: > 100 µM (inactive)
GI50 [53]: > 100 µM (inactive)
GI50 [54]: > 100 µM (inactive)

O=c1cc(-c2ccccc2)[nH]c2cccc(S)c12
GI50 [1]: 0.462 µM (active)
GI50 [2]: 0.393 µM (active)
GI50 [3]: 3.14 µM (inactive)
GI50 [4]: 0.153 µM (active)
GI50 [5]: 0.0299 µM (active)
GI50 [6]: 0.123 µM (active)
GI50 [7]: 1.25 µM (inactive)
GI50 [8]: 0.155 µM (active)
GI50 [9]: > 100 µM (inactive)
GI50 [11]: 0.119 µM (active)
GI50 [12]: 0.406 µM (active)
GI50 [13]: 0.324 µM (active)
GI50 [14]: 0.115 µM (active)
GI50 [15]: 0.465 µM (active)
GI50 [16]: 0.182 µM (active)
GI50 [17]: 0.37 µM (active)
GI50 [18]: 0.202 µM (active)
GI50 [20]: 0.0566 µM (active)
GI50 [21]: 4.8 µM (inactive)
GI50 [22]: 0.0782 µM (active)
GI50 [23]: 0.375 µM (active)
GI50 [24]: 0.172 µM (active)
GI50 [25]: 8.32 µM (inactive)
GI50 [26]: 0.0796 µM (active)
GI50 [27]: 0.804 µM (active)
GI50 [28]: 13.6 µM (inactive)
GI50 [29]: 0.857 µM (active)
GI50 [30]: 0.424 µM (active)
GI50 [31]: 0.331 µM (active)
GI50 [32]: > 100 µM (inactive)
GI50 [33]: 0.0944 µM (active)
GI50 [34]: 0.344 µM (active)
GI50 [38]: 0.277 µM (active)
GI50 [55]: 0.0762 µM (active)
GI50 [39]: 0.0867 µM (active)
GI50 [40]: 0.205 µM (active)
GI50 [41]: 0.455 µM (active)
GI50 [42]: 0.249 µM (active)
GI50 [43]: 0.301 µM (active)
GI50 [56]: 0.288 µM (active)
GI50 [44]: 0.164 µM (active)
GI50 [45]: 0.564 µM (active)
GI50 [46]: 0.341 µM (active)
GI50 [47]: 0.44 µM (active)
GI50 [48]: 0.445 µM (active)
GI50 [49]: 0.344 µM
GI50 [57]: 0.2 µM (active)
GI50 [58]: 0.177 µM (active)
GI50 [50]: 0.0588 µM (active)
GI50 [51]: 0.201 µM (active)
GI50 [52]: 0.301 µM (active)
GI50 [54]: 0.0246 µM (active)

CC1/C(=N/O)CC(c2ccccc2)N(N=O)C1c1ccccc1 (configuration not stated)
GI50 [1]: > 100 µM (inactive)
GI50 [2]: > 100 µM (inactive)
GI50 [3]: > 100 µM (inactive)
GI50 [4]: > 100 µM (inactive)
GI50 [5]: > 100 µM (inactive)
GI50 [6]: > 100 µM (inactive)
GI50 [7]: > 100 µM (inactive)
GI50 [8]: > 100 µM (inactive)
GI50 [59]: > 100 µM (inactive)
GI50 [9]: > 100 µM (inactive)
GI50 [10]: > 100 µM (inactive)
GI50 [11]: 82.4 µM (inactive)
GI50 [12]: > 100 µM (inactive)
GI50 [13]: > 100 µM (inactive)
GI50 [14]: > 100 µM (inactive)
GI50 [15]: > 100 µM (inactive)
GI50 [16]: > 100 µM (inactive)
GI50 [17]: > 100 µM (inactive)
GI50 [18]: > 100 µM (inactive)
GI50 [19]: > 100 µM (inactive)
GI50 [20]: > 100 µM (inactive)
GI50 [21]: > 100 µM (inactive)
GI50 [22]: > 100 µM (inactive)
GI50 [23]: > 100 µM (inactive)
GI50 [25]: > 100 µM (inactive)
GI50 [26]: > 100 µM (inactive)
GI50 [27]: > 100 µM (inactive)
GI50 [28]: > 100 µM (inactive)
GI50 [29]: > 100 µM (inactive)
GI50 [30]: > 100 µM (inactive)
GI50 [31]: > 100 µM (inactive)
GI50 [33]: > 100 µM (inactive)
GI50 [34]: > 100 µM (inactive)
GI50 [36]: > 100 µM (inactive)
GI50 [37]: > 100 µM (inactive)
GI50 [38]: > 100 µM (inactive)
GI50 [55]: > 100 µM (inactive)
GI50 [39]: > 100 µM (inactive)
GI50 [40]: > 100 µM (inactive)
GI50 [41]: > 100 µM (inactive)
GI50 [42]: > 100 µM (inactive)
GI50 [43]: > 100 µM (inactive)
GI50 [56]: > 100 µM (inactive)
GI50 [44]: > 100 µM (inactive)
GI50 [45]: > 100 µM (inactive)
GI50 [46]: > 100 µM (inactive)
GI50 [47]: > 100 µM (inactive)
GI50 [48]: > 100 µM (inactive)
GI50 [49]: > 100 µM
GI50 [57]: > 100 µM (inactive)
GI50 [58]: > 100 µM (inactive)
GI50 [50]: > 100 µM (inactive)
GI50 [51]: > 100 µM (inactive)
GI50 [52]: > 100 µM (inactive)
GI50 [53]: 91.4 µM (inactive)
GI50 [54]: > 100 µM (inactive)
